Measured values published in publication PMC8016939 (2021).

Legend:
[1] = system: Baby Spinach (bSP) (RNA, aptamer) GGUGAAGGACGGGUCCAGUAGUUCGCUACUGUUGAGUAGAGUGUGAGCUCC; assay: fluorescence titration, 1:1 model; conditions: 50 mM KCl, 5 mM MgCl2; 10 mM HEPES pH 7.5, 2 µM DFHBI, flow-cell; apparent (one-site model)
[2] = system: Baby Spinach (bSP) (RNA, aptamer) GGUGAAGGACGGGUCCAGUAGUUCGCUACUGUUGAGUAGAGUGUGAGCUCC; assay: fluorescence titration plus absorption spectra, multiple-site model; conditions: 50 mM KCl, 5 mM MgCl2; 10 mM HEPES pH 7.5, 2 µM DFHBI, flow-cell; site 1 of 2 (fluorescent complex); derived as K x p, p = 1.8

**Q.** Which Kd [1] does the source give for CC1=N/C(=C\c2cc(F)c(O)c(F)c2)C(=O)N1C here?
**A.** 4.4 µM

**Q.** What about the Kd [2] of the same compound?
**A.** 7.9 ± 0.2 µM
